# Tests used:
# [1] = molecular target: T1, TGFBR2 K252R (Homo sapiens, UniProt P37173, K252R); experiment: DARTS (protection from pronase) in OS cells expressing the mutant; type: cell-based
# T1 construct: TGFBR2 K252R overexpression plasmid transfected into OS cells
# [2] = molecular target: T2, TGFBR2 (Homo sapiens, UniProt P37173); experiment: TR-FRET LanthaScreen Eu Kinase Binding Assay (tracer […]; reported as kinase activity inhibition); supported by MST, DARTS on recombinant protein, CETSA
# T2 construct: MST used recombinant human TGFBR2 ECD
# T2 sequence (P37173 188-567 limits assumed): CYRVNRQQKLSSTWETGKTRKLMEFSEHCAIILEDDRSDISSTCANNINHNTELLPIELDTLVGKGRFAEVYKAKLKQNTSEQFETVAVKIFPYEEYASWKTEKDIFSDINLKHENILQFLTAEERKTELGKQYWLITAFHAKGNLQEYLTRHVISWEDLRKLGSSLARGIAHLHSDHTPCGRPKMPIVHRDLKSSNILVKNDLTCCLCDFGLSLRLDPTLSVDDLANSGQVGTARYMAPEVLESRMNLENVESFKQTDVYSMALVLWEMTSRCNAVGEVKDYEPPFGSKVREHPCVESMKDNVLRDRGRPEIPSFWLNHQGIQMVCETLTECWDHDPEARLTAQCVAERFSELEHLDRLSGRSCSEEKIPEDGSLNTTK
# T1 sequence (P37173 23-567 K252R): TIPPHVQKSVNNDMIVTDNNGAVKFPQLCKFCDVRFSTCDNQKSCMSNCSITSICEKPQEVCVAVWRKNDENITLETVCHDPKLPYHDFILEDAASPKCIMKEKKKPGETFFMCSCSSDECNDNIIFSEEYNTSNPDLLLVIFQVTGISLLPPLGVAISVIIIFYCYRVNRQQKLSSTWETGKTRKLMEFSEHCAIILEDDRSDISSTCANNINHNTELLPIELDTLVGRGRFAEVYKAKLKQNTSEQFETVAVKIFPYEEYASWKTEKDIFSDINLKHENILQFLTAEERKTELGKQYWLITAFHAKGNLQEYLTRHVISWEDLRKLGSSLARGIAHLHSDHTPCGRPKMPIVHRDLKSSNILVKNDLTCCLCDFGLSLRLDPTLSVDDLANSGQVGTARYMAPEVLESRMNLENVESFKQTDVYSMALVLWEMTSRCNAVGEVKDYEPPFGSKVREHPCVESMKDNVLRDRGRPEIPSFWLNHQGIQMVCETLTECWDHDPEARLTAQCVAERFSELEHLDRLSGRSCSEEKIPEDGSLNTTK
structure (smiles),measurement,setting,value
"CC(C)[C@H]1OC(=O)[C@H](Cc2ccccc2)N(C)C(=O)[C@@H](C(C)C)OC(=O)[C@H](Cc2ccccc2)N(C)C(=O)[C@@H](C(C)C)OC(=O)[C@H](Cc2ccccc2)N(C)C1=O [BEA, beauvericin]",DARTS (protection from pronase) in OS cells expressing the mutant,[1],"BEA suppressed the pronase-induced degradation of TGFBR2^K252R (Figure S7A-B), indicating that BEA may bind to TGFBR2 at N332"
same,IC50,[2],1360 ± 210 nM
